Converted amounts (≈) assume the structure as drawn.
Legend:
[1] = Solubility in aqueous buffer; format: physicochemical; conditions: kinetic from dmso stock; for solubility at 2 h: pH 7, 2 h; for solubility at 24 h: pH 7, 24 h; for solubility: pH 7.4, aqueous buffer
Method: […] A 96-well plate format assay was used. […] Solutions were filtered through a 0.22 μm and concentrations of the concentration of the compound in the filtrate was determined using LC-MS/MS in comparison with 1 and 10 μM standards. The measurements were expressed as mM.

RT4 = assay: Proliferation assay using bladder cancer cell lines: RT4; format: cell-based, human; conditions: Homo sapiens, RT-4; 72 h culture, CyQuant proliferation assay
Method: (§1) Bladder cancer cell lines (T24, RT112, HT1376 and RT4 are human bladder cancer cell lines; NHEK are normal human keratinocytes) were obtained from the European Collection of Cell Cultures (Salisbury, UK). Cells were plated at 3×10^3 per well, in flat bottomed 96-well plates in 100 μl of DMEM medium containing: 5% Fetal Clone 1,50 μg/l gentamicin, 1 mM sodium pyruvate and 1% non-essential amino acids. After culturing for 24 h at 37° C. in 5% CO2, to allow cells to adhere to the plates, VDR ligands (compounds (1)-(14)) were added at concentrations ranging from 100 μM to 0.3 μM in 100 μl of above-mentioned complete medium. After a further 72 h of culture, cell proliferation was measured using a fluorescence-based proliferation assay kit. (CyQuant Cell Proliferation Assay Kit, Molecular Probes, Eugene, Oreg., USA). The IC50 was calculated from the regression curve of the titration data.

NHEK = assay: Proliferation assay: NHEK normal human keratinocytes; format: cell-based; conditions: 72 h culture, CyQuant proliferation assay
Method: as §1

[2] = molecular target: T1, human cDNA expressed CYP3A4 (Homo sapiens, UniProt P08684); assay: Metabolic stability (hCYP3A4); format: in vitro ADME; conditions: 2 μM, 60 min at 37° C.
T1 construct: purchased Gentest
T1 sequence (P08684 whole entry): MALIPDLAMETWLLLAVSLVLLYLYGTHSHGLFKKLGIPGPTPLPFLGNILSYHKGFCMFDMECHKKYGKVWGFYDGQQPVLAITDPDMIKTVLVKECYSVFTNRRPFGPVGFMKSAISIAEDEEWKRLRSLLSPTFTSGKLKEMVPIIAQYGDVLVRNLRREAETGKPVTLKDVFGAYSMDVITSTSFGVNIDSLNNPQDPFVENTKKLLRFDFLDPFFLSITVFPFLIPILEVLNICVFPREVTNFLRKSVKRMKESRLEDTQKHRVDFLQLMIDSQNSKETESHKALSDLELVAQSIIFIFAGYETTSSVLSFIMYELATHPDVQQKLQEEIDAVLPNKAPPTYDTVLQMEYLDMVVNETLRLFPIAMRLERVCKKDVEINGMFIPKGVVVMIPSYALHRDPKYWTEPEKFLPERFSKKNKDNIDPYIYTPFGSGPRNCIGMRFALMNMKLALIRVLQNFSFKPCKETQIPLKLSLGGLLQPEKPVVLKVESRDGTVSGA
Method: Metabolic Stability (hCYP34A4). The relative stability of the substrate was determined by measuring the amount of substrate remaining following incubation with human cDNA expressed CYP3A4 microsomal preparations (Gentest, 6 pmol) against a control microsomal incubation containing no active cytochrome P450. The assay was performed in a 96-well plate format. Each compound was incubated at a concentration of 2 μM for 60 min at 37° C. LC-MS/MS was used for determining the compound remaining after incubation. The results were expressed as % remaining.

[3] = system: Renin mRNA in As4.1 cells; assay: Renin mRNA inhibition in murine juxtaglomerular cell line As4.1; format: cell-based; conditions: Mus musculus, 24 h, real time PCR normalized versus β-actin, read-out: Renin mRNA inh.As4.1/wt
Method: As4.1 cells (80% subconfluent) were treated in complete medium with compounds of the invention at 10^−8, 10^−9 and 10^−10 M for 24 h. Total RNA was extracted using RNeasy Mini kit (Qiagen); treated with DNase I (Qiagen) and Reverse Transcription Reagent (Applied Biosystems) with Random Examers were used for reverse transcription according to the manufacturers' instructions. Real Time PCR analysis was performed in multiplex using commercially available β-actin VIC-conjugated probe (cat. n. 4352341E, Applied Biosystems) and custom designed mRENIN FAM-conjugated probe (Assay by Design, Applied Biosystems; Forward: […]; Reverse: […]; Probe: FAM-[…]-MGB). Reactions were performed in a 25 μL volume containing 12,5 μl 2× Master Mix (Applied Biosystems), 10 ng/reaction/well cDNA, and 2,5 μM each gene-specific primer. An ABI PRISM 7700 analyzer (Applied Biosystems) was used at 50° C. for 2 minutes and 95° C. for 10 minutes, followed by 40 cycles at 95° C. for 15 seconds and 60° C. for 1 minute. Cycle threshold (Ct) values were exported onto Excel worksheets for analysis. Test cDNA results were normalized versus mouse β-actin housekeeping gene. Fold differences in gene expression between the subtracted versus the unsubtracted populations were expressed using the method of 2^−ΔΔCt. (Table 6)

Caco-2 cells = assay: Apparent permeability on Caco-2 cells; format: in vitro ADME, Human; conditions: for Papp_A > B / Papp_B >: 10 μM, 2 h; for Mass Bal A > B: unit assumed
Method: (§2) Apparent Permeability on Caco-2 cells. Human colon adenocarcinoma (Caco-2) cells were obtained from the American Type Culture Collection (Rockville, Md.). Permeability studies were performed using a 24-well format in both transport directions, apical to basolateral (A→B) and basolateral to apical (B→A), on Caco-2 monolayers. Fresh donor solution containing 10 μM test compound was added to either the apical or the basolateral side, while drug-free medium was placed on the opposite side. The 24-transwell plates were placed on a plate shaker at 37° C. After 2 h, the buffer from the receiving and donor chambers were collected and aliquots were analysed via LC-MS/MS. The data reported were the permeability cm·10^−6/sec and the efflux ratio.

[4] = Apparent permeability on Caco-2 cells; format: in vitro ADME, Human; conditions: human, Caco-2, Table 8
Method: as §2

[5] = system: IFN-γ production by allogeneic PBMC; assay: IFN-γ production in the mixed leukocyte response (MLR); format: cell-based; conditions: 120 h; MLR of allogeneic PBMC, 5 days, ELISA; read-out: INF-γ IC50
Method: Immature dendritic cells (DC) were prepared as described in Romani, N. et al. (Romani, N. et al. (1996) J. Immunol. Meth. 196:137). IFN-γ production by allogeneic T cell activation in the mixed leukocyte response (MLR) was determined as described in Penna, G., et al., J Immunol., 164: 2405-2411 (2000).
Briefly, peripheral blood mononuclear cells (PBMC) were separated from buffy coats by Ficoll gradient and the same number (3×10^5) of allogeneic PBMC from 2 different donors were co-cultured in 96-well flat-bottom plates. The vitamin D3 compounds were added to each of the cultures.

[6] = Theoretical maximum absorbable dose (MAD), mouse intestine; conditions: for MAD (ug) mouse (PAMPA): calculated using PAMPA permeability
Method: (§3) To evaluate the intestinal absorption potential of selected compounds, the maximum absorbable dose (MAD) in mouse, rat and human intestines was also calculated using a modification of the original equation (Johnson 1996, Hilgers 2003): MAD (mg)=S·Pe·(A/ILV)·SIV·SITT (Eq. 1), where S is the solubility measured at pH 7.4 (mg/ml), Pe is the permeability measured in artificial membranes (PAMPA) or in the apical to basolateral direction of Caco-2 cells (cm/sec), A is the intestinal surface area (cm^2), ILV is the intestinal lumen volume (cm^3), SIV is the small intestinal volume (ml) and SITT is the small intestinal transit time (sec).

[7] = Determination of Maximum Tolerated Dose (MTD) in mice; conditions: mouse, in vivo, po; female C57BL/6 mice, p.o. daily for four days; highest dose without hypercalcemia (serum calcium >10.7 mg/dl)
[8] = Theoretical maximum absorbable dose (MAD), human intestine; conditions: for MAD (ug) human (PAMPA): calculated using PAMPA permeability
Method: as §3

[9] = Theoretical maximum absorbable dose (MAD), rat intestine; conditions: for MAD (ug) rat (PAMPA): calculated using PAMPA permeability
Method: as §3

RT112 = assay: Proliferation assay using bladder cancer cell lines: RT112; format: cell-based, human; conditions: Homo sapiens, RT-112; 72 h culture, CyQuant proliferation assay
Method: as §1

[10] = Permeability by passive diffusion (PAMPA); format: in vitro ADME; conditions: for PAMPA % Memb: % retention in the membrane; for Papp at 4 h, 10 μM: PAMPA, pH 7.4, Table 8
Method: Permeability by Passive Diffusion (PAMPA). Experiments were performed in 96-well acceptor and donor plates using 15% soy lecithin in n-dodecane artificial membranes. The acceptor plate (96 well hydrophobic filter plate (MAIP N45, Millipore)) was prepared by adding 4 μL of artificial membrane material on the top of the filter and the plate was filled with 200 μL of HEPES buffered HBSS (pH 7.4). The donor plate (an indented 96-well plate from p-ION, MA) was filled with 200 μL of HEPES buffered HBSS (pH 7.4) containing 10 μM of the test compounds. The acceptor plate was placed onto the donor plate to form a “sandwich” and was incubated at 37° C. for 4 hours. After the incubation period, acceptor, donor and initial donor solution (reference) were analysed via LC-MS/MS. Data were reported as bilateral Peff in cm×10^−6/sec and % retention in the membrane.

[11] = system: human stromal bladder cells; assay: Basal growth of human stromal bladder cells; format: cell-based; conditions: FIG. 2
Excerpt: The Inventors confirmed the presence of vitamin D receptors (VDRs), as previously reported in the literature, on these cells (see below in FIG. 1).
The maximum tolerated dose (MTD) in rats is also listed for each compound (Table 5).

[12] = calculated using Caco2-AB permeability

Compound	solubility at 2 h [1]	solubility at 24 h [1]	solubility [1]	IC50 (RT4)	IC50 (NHEK)	CYP3A4 stability [2]	IC50 [3]	Papp_A > B (Caco-2 cells; apical to basolateral)	Mass Bal A > B (Caco-2 cells; apical to basolateral)	Mass Bal B > A (Caco-2 cells; basolateral to apical)	Papp_B > (Caco-2 cells; basolateral to apical)	IC50 [5]	MTD at 4 days [7]	IC50 (RT112)	PAMPA % Memb [10]	Papp at 4 h, 10 μM [10]	MAD (ug) mouse (PAMPA) [6]	MAD (ug) human (PAMPA) [8]	MAD (ug) rat (PAMPA) [9]	further results
C[C@]12CCC/C(=C\C=C3\CC(O)C[C@H](O)C3)C1CC=C2C1(CC#CC(O)(C(F)(F)F)C(F)(F)F)CC1 (stereo partly drawn) [Compound 3, 1α,25-Dihydroxy-16-ene-20-cyclopropyl-23,24-yne-26,27-hexafluoro-19-nor-cholecalciferol]	1.3 µM (≈ 0.674 µg/mL)	7.1 µM (≈ 3.68 µg/mL)	0.674 µg/mL (≈ 1.3 µM)	5200 nM	1000 nM	45.5 % remaining	0.73 nM	3.0 cm·10^−6/sec	8.8%	50.5%	6.0 cm·10^−6/sec	0.014 nM	0.3 µg/kg	22700 nM	–	–	–	–	–	Papp A→B at 2 h, 10 μM ([4]; apical to basolateral, read-out: Caco2 Papp_AB): 3 ×10⁻⁶ cm/s; Papp B→A at 2 h, 10 μM ([4]; basolateral to apical, read-out: Caco2 Papp_BA): 6 ×10⁻⁶ cm/s; MAD (ug) mouse (Caco2-AB) [6, 12]: 0.16 (Caco2-AB) ug; MAD (ug) human (Caco2-AB) [8, 12]: 54.43 (Caco2-AB) ug; MAD (ug) rat (Caco2-AB) [9, 12]: 0.78 (Caco2-AB) ug
C[C@]12CCC/C(=C\C=C3\CC(O)C[C@H](O)C3)C1CC=C2C1(C/C=C\C(O)(C(F)(F)F)C(F)(F)F)CC1 (stereo partly drawn) [Compound 7, 1α,25-Dihydroxy-16-ene-20-cyclopropyl-23,24-Z-ene-26,27-hexafluoro-19-nor-cholecalciferol]	4.2 µM (≈ 2.19 µg/mL)	4.1 µM (≈ 2.13 µg/mL)	2.17 µg/mL (≈ 4.16 µM)	2200 nM	4400 nM	58.3 % remaining	2.58 nM	0.0 cm·10^−6/sec	13.1%	83.3%	0.0 cm·10^−6/sec	0.055 nM	0.3 µg/kg	9600 nM	58.1%	47.8 ×10⁻⁶ cm/s	8.20 µg	2788.31 µg	39.99 µg	Caco2 Papp_AB (Caco-2 cells; apical to basolateral, Table 8): 0.00 10-6 cm/sec; Caco2 Papp_BA (Caco-2 cells; basolateral to apical, Table 8): 0.00 10-6 cm/sec
C=C1/C(=C\C=C2/CCC[C@]3(C)C(C4(C/C=C\C(O)(C(F)(F)F)C(F)(F)F)CC4)=CCC23)CC(O)C[C@@H]1O (stereo partly drawn) [Compound 8, 1α,25-Dihydroxy-16-ene-20-cyclopropyl-23,24-Z-ene-26,27-hexafluoro-cholecalciferol]	< 1 µM	1.6 µM (≈ 0.852 µg/mL)	0.533 µg/mL (≈ 1 µM)	3300 nM	3600 nM	52.7 % remaining	1.6 nM	–	–	–	–	0.033 nM	1 µg/kg	15500 nM	57.6%	50 ×10⁻⁶ cm/s	2.11 µg	716.81 µg	10.28 µg	inhibiting the basal growth of bladder cells [11]: effective
